These results are taken from patent EP3058958B1, “ANIDULAFUNGIN COMPOSITION” (Selectchemie AG, priority 2015, dated 2016).

Molecules are shown by their SMILES. Numbered stars: 1 amine (or outer) side, 2 acyl side, 3 side chain; on linkers, the order of the positions; unused ones are H or OH. Bridge positions count the residues as written; N and C are the ends. Square brackets hold non-standard residues; d marks the D form. Peptide text beside a SMILES is read from it. * marks the point of attachment. pTerphenylCO(4''-OnC5H11) = CCCCCOc1ccc(-c2ccc(-c3ccc(C(=O)*)cc3)cc2)cc1; Orn(4R-OH,5R-OH) = O=C([C@H](C[C@@H](O)[C@@H](O)N[*:3])N[*:1])[*:2]; hTyr(3S-OH,4S-OH) = N[C@H](C(=O)O)[C@H](O)[C@@H](O)c1ccc(O)cc1; Pro(3S-OH,4S-Me) = C[C@H]1CN[C@H](C(=O)O)[C@H]1O; Hyp = O=C(O)[C@@H]1C[C@@H](O)CN1

This series in a line: Dissolution of anidulafungin powder in the polysorbate 80 solution. The class given is physicochemical. The procedure: Next the active ingredient is added. […] Even in small scale experiments the dissolution needs more than 4 hours. The dissolution can be accelerated by a pre-treatment of the active ingredient, preferably by dispersing the active ingredient in a pharmaceutically acceptable solvent, preferably in WFI, e.g. in an ultrasonic bath, and using this dispersion in step (b).
Dissolve the pre-weighed amount of polysorbate 80 in about 75% of total amount of WFI, rinse weighing container with 100 ml of WFI into reactor; stir not less than 20 min until excipient completely dissolves with a mechanical stirrer at a speed of 150-190 rpm.
Add about 7% of total amount of WFI to the pre-weighed amount of the active pharmaceutical ingredient (API) anidulafungin in glass bottle, screw the cap, shake bottle well in order to promote wetting of API and transfer it into ultrasonic bath for homogenisation. Take not less than 3 cycles of homogenisation for 10 min. Slightly shake the bottle after each cycle, in order to rinse API particles from the walls of the bottle's upper part into suspension. After white, well-homogenized suspension is obtained, transfer it into intermediate product preparation reactor, stir with a mechanical stirrer at a speed of 150-190 rpm until substance dissolves completely.
100% of the particles were below 750 µm. Particle sizes were analysed by laser diffraction with dry dispersion using a Malvern Mastersizer 3000 instrument. The size distribution was determined from the light scattering data using the theory of light scattering developed by Gustav Mie. […] It remained an undissolved residue of about 5% which corresponds to particles with more than about 400 µm. About 9-10% of the particles were bigger than 350 µm.
In a second experiment an aliquot of the anidulafungin powder was sieved through a 50 mesh sieve, corresponding to a mesh width of 297 µm to remove the bigger particles.

With `CCCCCOc1ccc(-c2ccc(-c3ccc(C(=O)N[C@H]4C[C@@H](O)[C@@H](O)NC(=O)[C@@H]5[C@@H](O)[C@@H](C)CN5C(=O)[C@H]([C@@H](C)O)NC(=O)[C@H]([C@H](O)[C@@H](O)c5ccc(O)cc5)NC(=O)[C@@H]5C[C@@H](O)CN5C(=O)[C@H]([C@@H](C)O)NC4=O)cc3)cc2)cc1` [anidulafungin powder, anidulafungin] ({pTerphenylCO(4''-OnC5H11)}-[Orn(4R-OH,5R-OH)]T[Hyp][hTyr(3S-OH,4S-OH)]T[Pro(3S-OH,4S-Me)]; lactam 1-C), the “dissolution in the polysorbate 80 solution” value reads like this: (after treatment of the powder in an ultrasonic bath) “complete dissolution could be achieved”; (vigorous stirring for 4 h, powder D90 339 µm, unsieved) “could not be dissolved completely”. Also, the “time needed for dissolution” value (particles with a particle size of more than 400 µm, small scale experiments, solubilizing agent added) is given as “more than 4 hours”. Besides, under “polysorbate 80 solution, vigorous stirring for 4 h, powder D90 339 µm”, the undissolved residue result is recorded as “about 5%”.
For the compound `CCCCCOc1ccc(-c2ccc(-c3ccc(C(=O)N[C@H]4C[C@@H](O)[C@@H](O)NC(=O)[C@@H]5[C@@H](O)[C@@H](C)CN5C(=O)[C@H]([C@@H](C)O)NC(=O)[C@H]([C@H](O)[C@@H](O)c5ccc(O)cc5)NC(=O)[C@@H]5C[C@@H](O)CN5C(=O)[C@H]([C@@H](C)O)NC4=O)cc3)cc2)cc1` [sieved powder, anidulafungin] ({pTerphenylCO(4''-OnC5H11)}-[Orn(4R-OH,5R-OH)]T[Hyp][hTyr(3S-OH,4S-OH)]T[Pro(3S-OH,4S-Me)]; lactam 1-C), the “dissolution in the polysorbate 80 solution” value (powder sieved through a 50 mesh sieve (297 µm), mechanical stirrer) is recorded as “could be dissolved easily”.
